Measured values published in EP0457908A1, “HYDROCHLORIDE 2,3,3a,4,5,6-HEXAHYDRO-8-CYCLOHEXYL-1H-PYRAZINO (3,2,1-j,k)CARBAZOL, METHOD OF OBTAINING IT AND A PHARMACEUTICAL PREPARATION OF ANTIDEPRESSIVE ACTION BASED ON IT” (priority 1989, dated 1991).
Where two headings read alike, the source gives them in different places.

How the values were obtained:
male white mice = experiment: Hyperlocomotion induced by d,l-amphetamine; assay type: in vivo; settings: 10-20 minutes after d,l-amphetamine 2.5 mg/kg intraperitoneally, distilled water 1,924.5±177.6
Procedure: The influence on hyperlocomotion induced by d,l-amphetamine was studied in experiments on male white mice with a mass of 20-22 g.
The locomotive activity of the mice was recorded 10-20 minutes after administration of d,l-amphetamine for 10 minutes.

[1] = Allergenic, embryotoxic and teratogenic effect; settings: in vivo
white mice [2] = experiment: Porsolt's swimming behaviour test (duration of immobilization); assay type: in vivo; settings: for Duration of immobilization, %: distilled water = 100
Procedure: The effect of the compound according to the present invention on the duration of immobilization in Porsolt's swimming behaviour test (Porsolt et al., 1977) in experiments on white mice of both sexes with a mass of 16-18 g. […] Sixty minutes after the last (or a single) administration of the preparations, the mice were placed into cylinders (10 cm diameter, 25 cm height) filled with water to 6 cm. The temperature of water was 21-22 °C. […] The number and duration of all stops in swimming (immobilization) over the observation period were recorded.

cats = experiment: Bioelectrical activity of the brain (electroencephalogram), cats; assay type: in vivo
From the text: The study of the effect on the bioelectrical activity of the brain was effected in acute experiments using 8 consious cats immobilized with diplacin with a mass of 2.5-3.4 kg under conditions of a controlled breathing and 25 rabbits with a mass of 2.6-3.1 kg with chronically implanted electrodes. Recorded on an electroencephalograph was an electroencephalogram of the sensomotor, parietal and visual regions of the cerebral cortex in cats, plus that of the reticular formation of the midbrain, dorsal hippocamp and amygdala in rabbits.

[3] = test system: fruit fly, embryonic cells of rats, bone-marrow cells of mice, culture of human lymphocytes; experiment: Mutagenous effect tests; settings: genetic mutations, dominant lethal mutations, chromosome aberrations
Procedure: The compound according to the present invention was also tested for a possible mutagenous effect by methods of evaluation of genetic mutations on fruit fly: dominant lethal mutations were studied on embryonic cells of rats, chromosome aberrations - in bone-marrow cells of mice and in a culture of human lymphocytes.

patients = experiment: Clinical test on patients with depressions; assay type: in vivo, human beings
Procedure: The drug according to the present invention was tested in a clinic on patients (561 persons) aged 18 to 72 suffering from depressions of various genesis - endogenous, reactive, neurotic depressions caused by organic injuries of the brain, as well as depressive disturbances in chronical alcoholism and the like.
Clinical tests for different types of depressions were carried out in the following groups of patients:
The drug according to the present invention was administered orally in tablets twice a day - in the morning and in the afternoon. The dose depended on the severity of disease, efficiency and tolerance of the drug.
The treatment was usually started with administration of the drug in single doses of 0.025 g (25 mg) with a gradual increment of the daily dose for 1 to 3 weeks up to 200-300 to 350-400 mg.
The treatment duration ranged from 7 days to 12 weeks, more frequently 40-45 days.
In a number of cases (55 patients) the drug according to the present invention was administered in combination with other psychotropic agents selected mainly from the group of tranquilizers and neuroleptics (tazepam, seduxen, tizercin, and the like).
The efficiency as the drug according to the present invention was assessed with the use of assessment scales.

[4] = test system: normotensive rats of the Vistar line; experiment: Effect on arterial pressure and heart beat rate; assay type: in vivo
Procedure: The compound according to the present invention was also tested for its effect on the cardiovascular system.

[5] = Central and peripheral anticholinergic effect (oxotremorine, arecoline, galantamine); assay type: in vivo; settings: 10 and 25 mg/kg orally and 1.0, 2.0 and 5.0 mg/kg intravenously
Procedure: The compound according to the present invention was also tested for its central and peripheral anticholinergic effect.

rats = experiment: Acute toxicity, rats; assay type: in vivo
From the text: (§1) The acute and chronical toxicity of the compound according to the present invention was studied on mice, rats and rabbits.

mice, rats and rabbits = experiment: Chronical toxicity, daily administration for 6 months; assay type: in vivo; settings: daily for 6 months
From the text: as §1
Upon a daily administration of the compound according to the present invention for the period of 6 months no functional disturbances on the part of the inner organs of the animals were observed.

[6] = Overall comparison of pharmacological parameters with pyrazidol; assay type: in vivo; settings: certain pharmacological parameters
white mice [7] = experiment: Enhancement of the effect of 5-hydroxytryptophane (head shaking); assay type: in vivo
Procedure: The compound according to the present invention was tasted for the exciting effect of 5-hydroxytryptophane (head shaking).
The compound according to the present invention in the doses of 1.0, 2.5, 5.0 and 10 mg/kg was administered orally 60 minutes prior to an intraperitoneal administration of 5-hydroxytryptophane (50 mg/kg).

white mice [8] = experiment: Reserpine-induced blepharoptosis; assay type: in vivo; settings: acute and chronical experiments
Procedure: The compound according to the present invention was tested for the ability to decrease depriming effects of reserpin (blepharoptosis, hypothermia and the like).
Tests were carried out on white mice of both sexes with a mass of 16-18 g.
The compound according to the present invention was orally administered in a single dose and repeatedly during 18 days.
The compound according to the present invention was administered in the single doses of 1, 2.5 and 5 mg/kg; repeatedly - in the doses of 0.5, 1.0, 2.5 and 5 mg/kg. The single-time administration and the last administration of the 18 days' course were effected 60 minutes prior to the intraperitoneal administration of reserpine (2.5 mg/kg). For a comparative assessment in these and other experiments pyrazidol and imipramine were also administered.

[9] = 5-days' administration, 1.0 mg/kg orally (dose from row order)
[10] = 5-days' administration, 2.5 mg/kg orally (dose from row order)
[11] = 5-days' administration, 5.0 mg/kg orally (dose from row order)
[12] = 18-days' administration, 2.5 mg/kg orally (dose from row order)
[13] = 18-days' administration, 5.0 mg/kg orally (dose from row order)
[14] = single administration, 1.0 mg/kg orally
[15] = single administration, 2.5 mg/kg orally
[16] = single administration, 5.0 mg/kg orally
[17] = endogenous depressions (maniac-depressive psychosis, schizophrenia), asthenic or asthenoadynamic syndromes, light and medium severity

For “2,3,3a,4,5,6-hexahydro-8-cyclohexyl-1H-pyrazino-(3,2,1-j,k)-carbazole hydrochloride [Compound of the present invention]”, the “Average value of locomotor activity of a group of 5 mice for 10 minutes” value (from here on “Average value”) (male white mice; 1.0 mg/kg oral) was 3,482.6±445.5, the “Average value” value (male white mice; 2.5 mg/kg oral) was 3,315.5±462.6 and the “Average value” value (male white mice; 5.0 mg/kg oral) was 4,885.0±537.2. The “allergenic, embryotoxic or teratogenic effect” value [1] was “did not exhibit an allergenic effect, an embryotoxic or teratogenic effect”, the “Duration of immobilization, Seconds, M±m” value (white mice [2]; [9]) was 102 ± 8.1 s and the “Duration of immobilization, %” value (white mice [2]; [9]) was 61%. The “Duration of immobilization, Seconds, M±m” value (white mice [2]; [10]) was 102 ± 6.1 s, the “Duration of immobilization, %” value (white mice [2]; [10]) was 61% and the “Duration of immobilization, Seconds, M±m” value (white mice [2]; [11]) was 88 ± 5.2 s. The “Duration of immobilization, %” value (white mice [2]; [11]) was 53%, the “Duration of immobilization, %” value (white mice [2]; 18-days' administration, 1.0 mg/kg orally (dose from row order)) was 58% and the “Duration of immobilization, Seconds, M±m” value (white mice [2]; [12]) was 96 ± 11.0 s. The “Duration of immobilization, %” value (white mice [2]; [12]) was 52%, the “Duration of immobilization, Seconds, M±m” value (white mice [2]; [13]) was 75 ± 9.8 s and the “Duration of immobilization, %” value (white mice [2]; [13]) was 41%. For the same substance, the “active in doses lower than those of imipramine and pyrazidol” value (white mice [2]; Porsolt's test, mice, oral) was 10 times, the “Duration of immobilization, Seconds, M±m” value (white mice [2]; [14]) was 145 ± 10.4 s and the “Duration of immobilization, %” value (white mice [2]; [14]) was 92%. The “Duration of immobilization, Seconds, M±m” value (white mice [2]; [15]) was 111 ± 9.9 s, the “Duration of immobilization, %” value (white mice [2]; [15]) was 69% and the “Duration of immobilization, Seconds, M±m” value (white mice [2]; [16]) was 105 ± 8.1 s. For the same substance, the “Duration of immobilization, %” value (white mice [2]; [16]) was 63%, the “frequency of the rhythm of oscillations of biopotentials” value (cats; 2 mg/kg, cats, all recorded regions of the brain cortex, control 8-10 per second) was 20-25 per second and the “amplitudes of oscillations of biopotentials” value (cats; 2 mg/kg, cats, all recorded regions of the brain cortex, control 90-120 µV) was 25-40 µV. The “changes in the bioelectric activity in the cortex and subcortical brain structures” value (cats; 0.5 and 1 mg/kg, intravenously and intraperitoneally, cats and rabbits not distinguished) was “did not bring about any changes”, the mutagenic properties [3] was “revealed no mutagenic properties” and the “improvement observed, % of cases” value (patients; depressive disorders of the neurotic and reactive genesis) was 80-100%. The “improvement observed, % of the events” value (patients; [17]) was 37-92%, the “improvement observed, % of the events, on the average” value (patients; [17]) was 50% and the “patients with a previous resistance to another antidepressant therapy in whom the drug was highly effective” value (patients; human, in vivo) was 6 out of 21. The toleration by patients (patients; human, in vivo) was “good toleration by patients”, the heart beat rate ([4]; 10 mg/kg oral daily for 5 days) was “did not change the heart beat rate” and the “effect on the arterial pressure and heart beat rate” value ([4]; 1-100 mg/kg orally, free behaviour) was “no essential effect”. For the same substance, the “central and peripheral anticholinergic effect” value [5] was “absence of the anticholinergic effect”, the LD₅₀ (rats) was 2.5 g/kg and the LD₅₀ (rats; oral administration) was 2,500 mg/kg. The pathomorphological study (mice, rats and rabbits; 100 mg/kg) was “non-specific pathological changes in parenchymatous organs which were of a reversible character”, the pathomorphological study (mice, rats and rabbits; 10 and 50 mg/kg) was “no pathological changes” and the “more active than the known preparation pyrazidol” value [6] was 2-10 times. For the same substance, the “more active than pyrazidol in enhancing the convulsive activity of 5-hydroxytryptophane” value (white mice [7]; mice, ratio of ED₅₀) was “about 8 times”, the “ED₅₀, the dose at which head shaking were noticed in 50% of the animals” value (white mice [7]; orally, 60 minutes prior to 5-hydroxytryptophane 50 mg/kg intraperitoneally, read 25 minutes after) was 2.5 (2.1-3.0) mg/kg and the “anti-reserpine effect, superior to pyrazidol” value (white mice [8]) was “more than 10 times”.
